Here are results for eight compounds from paper PMC3909880 (Nature communications, 2013).

The assay deals with M. tuberculosis IAR2 mutant (mmpL3 S288T). The class given is cell-based, Mycobacterium tuberculosis.
In the case of `NC[C@H]1O[C@H](O[C@H]2[C@H](O)[C@@H](O[C@H]3O[C@H](CO)[C@@H](O)[C@H](N)[C@H]3O)[C@H](N)C[C@@H]2N)[C@H](O)[C@@H](O)[C@@H]1O` [Kanamycin], the “MIC for IAR2” value is recorded as 2 µg/mL.

As for Capreomycin, the “MIC for IAR2” value is 1 µg/mL.

`NCC[C@H](O)C(=O)N[C@@H]1C[C@H](N)[C@@H](O[C@H]2O[C@H](CN)[C@@H](O)[C@H](O)[C@H]2O)[C@H](O)[C@H]1O[C@H]1O[C@H](CO)[C@@H](O)[C@H](N)[C@H]1O` [Amikacin]: the “MIC for IAR2” value was found to be 1 µg/mL.

Consider `C[C@H]1COc2c(N3CCN(C)CC3)c(F)cc3c(=O)c(C(=O)O)cn1c23` [Levofloxacin], for which the “MIC for IAR2” value turned out to be 0.25 µg/mL.

Consider `CC(C)=CCC/C(C)=C/CNCCNC1C2CC3CC(C2)CC1C3` (stereo not shown) [SQ109], for which the “Fold change in MIC for IAR2” value is 16 and the “MIC for IAR2” value turned out to be 4 µg/mL.

As to `CO[C@H]1/C=C/O[C@@]2(C)Oc3c(C)c(O)c4c(O)c(c(/C=N/N5CCN(C)CC5)c(O)c4c3C2=O)NC(=O)/C(C)=C\C=C\[C@H](C)[C@H](O)[C@@H](C)[C@@H](O)[C@@H](C)[C@H](OC(C)=O)[C@@H]1C` [Rifampin], the “Fold change in MIC for IAR2” value is on record as 0.25 and the “MIC for IAR2” value turned out to be 0.03125 µg/mL.

For the compound `NNC(=O)c1ccncc1` [Isoniazid], the “MIC for IAR2” value stood at 0.04 µg/mL.

Regarding `CC[C@@H](CO)NCCN[C@@H](CC)CO` [Ethambutol], the “MIC for IAR2” value is on record as 1 µg/mL.
